The values that follow come from ChEMBL document CHEMBL4342404, “Anti-cholinesterase hybrids as multi-target-directed ligands against Alzheimer's disease (1998-2018)” (Bioorg Med Chem, 2019).

Experiment [1] concerns the target T1, Acetylcholinesterase (Homo sapiens, UniProt P22303). The experiment in a line: Inhibition of human erythrocyte acetylcholinesterase using acetylthiocholine as substrate preincubated for 60 mins followed by substrate addition by Ellman's method. On the technique in general: DTNB colorimetry detects thiols as they appear.
Experiment [2] has as its target T2, Acetylcholinesterase (Electrophorus electricus, UniProt O42275). The experiment can be described thus: Inhibition of electric eel AChE using acetylthiocholine iodide as substrate incubated for 15 mins by Ellman's method.
In experiment [3] the target is Butyrylcholinesterase (Rattus norvegicus) (UniProt Q9JKC1). The experiment in a line: Inhibition of rat serum butyrylcholinesterase using butyrylthiocholine iodide as substrate at 50 uM incubated for 15 mins by Ellman's method relative to control.
Chain of Butyrylcholinesterase (Rattus norvegicus) (Q9JKC1 as listed by the source): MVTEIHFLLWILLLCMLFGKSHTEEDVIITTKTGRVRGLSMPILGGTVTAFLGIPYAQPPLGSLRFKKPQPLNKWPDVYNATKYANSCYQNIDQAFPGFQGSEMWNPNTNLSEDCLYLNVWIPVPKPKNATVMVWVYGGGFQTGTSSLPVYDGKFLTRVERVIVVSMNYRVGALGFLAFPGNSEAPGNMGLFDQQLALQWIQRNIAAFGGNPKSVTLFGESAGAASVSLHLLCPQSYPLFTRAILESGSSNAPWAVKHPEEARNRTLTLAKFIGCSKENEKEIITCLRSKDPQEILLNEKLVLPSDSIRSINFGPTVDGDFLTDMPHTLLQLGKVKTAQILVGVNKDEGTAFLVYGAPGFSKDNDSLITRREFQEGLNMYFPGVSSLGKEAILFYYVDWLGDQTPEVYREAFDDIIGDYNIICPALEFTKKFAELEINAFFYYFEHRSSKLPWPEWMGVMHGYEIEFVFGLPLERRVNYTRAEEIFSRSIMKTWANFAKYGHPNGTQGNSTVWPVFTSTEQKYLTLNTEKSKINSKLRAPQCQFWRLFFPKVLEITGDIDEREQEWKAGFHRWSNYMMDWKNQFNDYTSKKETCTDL
Experiment [4] concerns the target Amyloid-beta precursor protein (Homo sapiens) (UniProt P05067). The experiment can be described thus: Inhibition of HFIP pretreated amyloid beta (1-42) (unknown origin) self aggregation at 20 uM incubated for 48 hrs by thioflavin T based fluorescence assay relative to control.
Experiment [5] in a line: Antioxidant activity assessed as trolox equivalent of AAPH radical scavenging activity at 10 uM preincubated for 10 mins followed by APPH addition and measured every min for 120 mins by ORAC-FL assay relative to trolox. It is filed as functional.
In experiment [6] the target is T1, Acetylcholinesterase. The experiment can be described thus: biochemical.
Description: Inhibition of human acetylcholinesterase expressed in HEK 293 cells using acetylthiocholine iodide as substrate by Ellman's method
Experiment [7] addresses T3, Cholinesterase (Homo sapiens, UniProt P06276). The experiment can be described thus: Inhibition of human plasma butyrylcholinesterase by Ellman's method.
Experiment [8] addresses T2, Acetylcholinesterase. The experiment in a line: Inhibition of electric eel AChE using acetylthiocholine iodide as substrate pretreated for 5 mins followed by substrate addition and measured after 2 mins by Ellman's method.
The test system of experiment [9] is Rattus norvegicus. The experiment can be described thus: In vivo inhibition of MAO-A in Sprague-Dawley rat at 26 mg/kg, po administered for 2 weeks by radioassay method relative to control. The following applies: 336 h. It is filed as functional.
Experiment [10] relates to Rattus norvegicus. The experiment in a line: In vivo inhibition of MAO-B in Sprague-Dawley rat at 26 mg/kg, po administered for 2 weeks by radioassay method relative to control. The class given is functional. The note with it: 336 h.
The target in experiment [11] is T4, Cholinesterase (Equus caballus, UniProt P81908). The experiment in a line: Inhibition of equine serum BuChE using butyrylthiocholine iodide as substrate pretreated 60 mins followed by substrate addition by Ellman's method.
T4 sequence (P81908 whole entry): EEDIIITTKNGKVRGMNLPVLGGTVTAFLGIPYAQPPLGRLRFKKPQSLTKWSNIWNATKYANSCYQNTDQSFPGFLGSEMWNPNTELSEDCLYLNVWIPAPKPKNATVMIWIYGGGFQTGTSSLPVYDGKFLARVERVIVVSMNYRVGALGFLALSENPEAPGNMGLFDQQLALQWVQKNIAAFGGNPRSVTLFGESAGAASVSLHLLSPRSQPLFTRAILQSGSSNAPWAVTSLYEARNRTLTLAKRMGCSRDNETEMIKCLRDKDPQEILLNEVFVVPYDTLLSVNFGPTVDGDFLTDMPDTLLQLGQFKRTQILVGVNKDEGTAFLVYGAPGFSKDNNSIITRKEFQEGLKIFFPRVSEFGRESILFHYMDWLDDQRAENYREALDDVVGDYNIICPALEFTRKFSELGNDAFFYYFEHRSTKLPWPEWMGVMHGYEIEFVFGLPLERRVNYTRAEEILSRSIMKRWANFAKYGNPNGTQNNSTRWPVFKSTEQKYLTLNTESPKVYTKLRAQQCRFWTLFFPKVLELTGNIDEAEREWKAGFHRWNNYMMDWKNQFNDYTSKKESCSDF
The target in experiment [12] is T3, Cholinesterase. The experiment can be described thus: Inhibition of human butyrylcholinesterase.
The target of experiment [13] is T1, Acetylcholinesterase.
Description: Inhibition of human acetylcholinesterase
For experiment [14], the target named is T5, Acetylcholinesterase (Bos taurus, UniProt P23795).
T5 sequence (P23795 whole entry): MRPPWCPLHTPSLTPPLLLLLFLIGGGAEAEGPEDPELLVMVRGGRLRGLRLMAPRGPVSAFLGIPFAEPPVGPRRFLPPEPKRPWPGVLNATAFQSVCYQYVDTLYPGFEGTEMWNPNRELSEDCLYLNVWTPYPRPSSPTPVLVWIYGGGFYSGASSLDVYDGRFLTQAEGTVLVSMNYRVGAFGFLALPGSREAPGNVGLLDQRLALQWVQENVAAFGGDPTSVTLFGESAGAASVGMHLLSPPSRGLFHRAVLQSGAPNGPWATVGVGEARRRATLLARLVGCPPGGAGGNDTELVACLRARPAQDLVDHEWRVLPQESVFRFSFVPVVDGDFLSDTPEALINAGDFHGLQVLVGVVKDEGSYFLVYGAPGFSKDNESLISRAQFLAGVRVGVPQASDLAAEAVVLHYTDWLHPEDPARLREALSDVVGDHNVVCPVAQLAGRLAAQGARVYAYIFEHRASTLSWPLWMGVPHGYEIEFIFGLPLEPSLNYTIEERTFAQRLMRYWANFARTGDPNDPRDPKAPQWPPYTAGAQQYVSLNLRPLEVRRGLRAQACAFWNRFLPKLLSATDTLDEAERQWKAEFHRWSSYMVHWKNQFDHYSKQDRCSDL
Description: Inhibition of bovine erythrocyte acetylcholinesterase using acetylthiocholine as substrate by Ellman's method

Experiment [15] concerns the target Amine oxidase [flavin-containing] A (Homo sapiens, UniProt P21397).
Description: Inhibition of recombinant human MAOA expressed in baculovirus infected BTI insect cells using p-tyramine as substrate preincubated for 30 mins followed by substrate addition by Amplex red reagent/horseradish peroxidase coupled fluorescence assay
The next experiment has as its target Histamine H3 receptor (Homo sapiens, UniProt Q9Y5N1). The experiment can be described thus: biochemical.
Experiment [16] addresses T2, Acetylcholinesterase. The experiment in a line: Inhibition of electric eel AChE using acetylthiocholine iodide as substrate preincubated for 6 mins followed by substrate addition and measured up to 180 secs by Ellman's method.
In experiment [17] the target is T1, Acetylcholinesterase. The experiment in a line: Inhibition of AChE (unknown origin)-induced human amyloid beta 1 to 40 aggregation at 100 uM by thioflavin-T fluorescence method relative to control.
The target in experiment [18] is T4, Cholinesterase. The experiment in a line: Inhibition of equine serum BuChE using S-butyrylthiocholine iodide as substrate preincubated for 6 mins followed by substrate addition and measured up to 180 secs by Ellman's method.

T3 sequence (P06276 whole entry): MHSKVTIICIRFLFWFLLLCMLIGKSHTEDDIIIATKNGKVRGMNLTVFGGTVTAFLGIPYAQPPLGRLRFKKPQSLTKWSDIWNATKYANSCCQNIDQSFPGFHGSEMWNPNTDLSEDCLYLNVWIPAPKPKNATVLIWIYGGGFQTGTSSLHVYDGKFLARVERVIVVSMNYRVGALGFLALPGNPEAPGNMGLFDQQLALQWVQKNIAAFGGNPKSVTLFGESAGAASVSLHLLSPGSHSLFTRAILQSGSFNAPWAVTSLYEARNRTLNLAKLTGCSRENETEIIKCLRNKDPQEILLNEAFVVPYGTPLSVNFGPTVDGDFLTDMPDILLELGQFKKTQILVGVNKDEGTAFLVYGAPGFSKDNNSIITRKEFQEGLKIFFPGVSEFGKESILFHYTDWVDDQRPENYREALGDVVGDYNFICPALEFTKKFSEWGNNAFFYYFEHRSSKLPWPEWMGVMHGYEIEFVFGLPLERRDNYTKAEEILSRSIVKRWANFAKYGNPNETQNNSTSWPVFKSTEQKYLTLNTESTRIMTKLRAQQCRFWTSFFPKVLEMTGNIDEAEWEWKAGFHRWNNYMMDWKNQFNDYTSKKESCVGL
T1 sequence (P22303 whole entry): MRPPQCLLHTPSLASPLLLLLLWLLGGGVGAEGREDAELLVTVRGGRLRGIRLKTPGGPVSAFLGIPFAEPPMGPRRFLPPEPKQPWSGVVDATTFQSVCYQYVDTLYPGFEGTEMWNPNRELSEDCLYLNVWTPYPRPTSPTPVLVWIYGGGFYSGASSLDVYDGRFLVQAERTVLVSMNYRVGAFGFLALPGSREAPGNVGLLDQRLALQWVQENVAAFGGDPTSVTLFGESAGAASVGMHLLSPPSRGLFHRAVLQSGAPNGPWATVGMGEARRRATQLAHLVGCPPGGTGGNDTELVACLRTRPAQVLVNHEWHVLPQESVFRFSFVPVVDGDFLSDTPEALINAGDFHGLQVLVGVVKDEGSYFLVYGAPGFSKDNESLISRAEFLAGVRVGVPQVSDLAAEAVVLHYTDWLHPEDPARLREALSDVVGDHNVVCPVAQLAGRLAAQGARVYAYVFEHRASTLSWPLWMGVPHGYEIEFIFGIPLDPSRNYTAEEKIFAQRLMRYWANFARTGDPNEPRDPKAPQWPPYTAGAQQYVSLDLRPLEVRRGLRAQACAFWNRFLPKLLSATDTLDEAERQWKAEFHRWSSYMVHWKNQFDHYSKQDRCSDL
T2 sequence (O42275 whole entry): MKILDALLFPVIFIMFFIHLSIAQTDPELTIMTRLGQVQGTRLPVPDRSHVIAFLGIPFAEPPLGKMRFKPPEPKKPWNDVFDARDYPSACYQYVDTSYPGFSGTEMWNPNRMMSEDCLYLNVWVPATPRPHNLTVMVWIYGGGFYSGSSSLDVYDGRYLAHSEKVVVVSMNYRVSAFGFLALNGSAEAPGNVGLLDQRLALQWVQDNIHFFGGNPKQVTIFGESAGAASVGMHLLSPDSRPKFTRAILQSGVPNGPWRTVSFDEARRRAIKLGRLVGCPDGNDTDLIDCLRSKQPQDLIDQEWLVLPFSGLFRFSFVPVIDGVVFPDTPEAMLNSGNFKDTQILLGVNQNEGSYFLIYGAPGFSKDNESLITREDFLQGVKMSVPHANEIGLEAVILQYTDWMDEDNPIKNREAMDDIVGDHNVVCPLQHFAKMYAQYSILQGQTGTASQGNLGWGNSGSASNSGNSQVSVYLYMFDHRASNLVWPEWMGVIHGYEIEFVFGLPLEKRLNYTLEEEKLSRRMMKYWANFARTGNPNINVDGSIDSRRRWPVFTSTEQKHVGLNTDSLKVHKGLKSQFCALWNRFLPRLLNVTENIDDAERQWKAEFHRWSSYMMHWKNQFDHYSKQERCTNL
Chain of Amine oxidase [flavin-containing] A (P21397 whole entry): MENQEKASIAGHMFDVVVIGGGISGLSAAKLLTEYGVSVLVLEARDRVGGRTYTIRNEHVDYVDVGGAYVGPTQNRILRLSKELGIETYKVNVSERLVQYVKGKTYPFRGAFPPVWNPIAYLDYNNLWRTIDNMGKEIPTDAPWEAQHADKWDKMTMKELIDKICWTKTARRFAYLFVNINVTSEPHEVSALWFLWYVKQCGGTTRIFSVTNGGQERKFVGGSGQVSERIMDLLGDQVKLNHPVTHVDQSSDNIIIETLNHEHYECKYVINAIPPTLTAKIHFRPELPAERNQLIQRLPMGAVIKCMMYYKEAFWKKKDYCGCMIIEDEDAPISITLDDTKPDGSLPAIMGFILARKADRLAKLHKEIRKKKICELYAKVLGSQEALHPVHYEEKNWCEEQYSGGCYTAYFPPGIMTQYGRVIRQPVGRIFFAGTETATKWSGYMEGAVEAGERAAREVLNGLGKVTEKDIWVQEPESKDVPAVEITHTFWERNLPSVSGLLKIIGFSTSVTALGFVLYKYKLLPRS
Chain of Histamine H3 receptor (Q9Y5N1 whole entry): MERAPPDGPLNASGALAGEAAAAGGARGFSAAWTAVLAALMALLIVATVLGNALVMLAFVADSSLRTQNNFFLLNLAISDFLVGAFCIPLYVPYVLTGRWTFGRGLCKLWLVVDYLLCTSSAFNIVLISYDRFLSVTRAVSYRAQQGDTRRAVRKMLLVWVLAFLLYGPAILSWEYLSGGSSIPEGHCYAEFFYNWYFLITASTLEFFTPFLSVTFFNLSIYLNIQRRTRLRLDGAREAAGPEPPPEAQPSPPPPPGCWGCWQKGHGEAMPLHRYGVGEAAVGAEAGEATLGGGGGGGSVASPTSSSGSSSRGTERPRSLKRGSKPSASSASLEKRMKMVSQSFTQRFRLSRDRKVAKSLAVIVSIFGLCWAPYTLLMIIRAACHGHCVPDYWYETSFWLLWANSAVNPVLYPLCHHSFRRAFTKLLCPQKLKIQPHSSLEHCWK
Chain of Amyloid-beta precursor protein (Homo sapiens) (P05067 whole entry): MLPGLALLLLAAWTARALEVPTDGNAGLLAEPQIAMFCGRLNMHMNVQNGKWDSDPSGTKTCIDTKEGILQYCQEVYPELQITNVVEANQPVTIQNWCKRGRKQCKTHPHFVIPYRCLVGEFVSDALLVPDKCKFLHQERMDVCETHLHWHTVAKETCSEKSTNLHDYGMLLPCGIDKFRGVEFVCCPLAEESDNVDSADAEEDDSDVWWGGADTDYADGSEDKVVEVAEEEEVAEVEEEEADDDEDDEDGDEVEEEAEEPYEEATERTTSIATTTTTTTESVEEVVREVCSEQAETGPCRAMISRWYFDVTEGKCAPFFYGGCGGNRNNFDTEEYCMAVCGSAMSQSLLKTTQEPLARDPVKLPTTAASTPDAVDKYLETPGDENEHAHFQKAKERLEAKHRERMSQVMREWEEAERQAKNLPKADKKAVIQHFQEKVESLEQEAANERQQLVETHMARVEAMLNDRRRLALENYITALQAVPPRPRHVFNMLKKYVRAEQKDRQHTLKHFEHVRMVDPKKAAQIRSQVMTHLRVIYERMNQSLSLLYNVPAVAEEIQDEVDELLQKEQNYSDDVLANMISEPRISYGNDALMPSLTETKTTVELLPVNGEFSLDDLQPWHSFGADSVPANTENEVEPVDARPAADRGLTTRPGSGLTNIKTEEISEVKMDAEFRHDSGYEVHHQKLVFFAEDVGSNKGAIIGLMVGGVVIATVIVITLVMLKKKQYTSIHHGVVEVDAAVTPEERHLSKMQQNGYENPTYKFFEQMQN
Description for Histamine H3 receptor: Displacement of [3H]-N-alpha-methylhistamine from human H3R expressed in HEK293 cell membranes incubated for 90 mins by liquid scintillation counting method

As usually defined, the IC50 is the concentration at which inhibition is half-maximal. In turn, `C#CCN(C)C(C)Cc1cccc(OC(=O)N(C)CCCCCC)c1` (single isomer, unassigned; (+)) displayed a half-inhibitory concentration (IC50) against Acetylcholinesterase [1] of 2000 nM.

By inhibition is commonly meant the share of the control response that was lost under treatment. In turn, `CCN(CC)Cc1ccc(/C=C/c2cnc(C)c(O)c2CO)cc1O` displayed an IC50 against Acetylcholinesterase [2] of 2110 nM. Further, the inhibition in experiment [3] came out at 16.7%.

With `Oc1ccc(/C=C/c2cc(O)c3ncccc3c2)cc1`, in experiment [4], the inhibition worked out at 71.7%. The Ratio (umolequiv/umol) in experiment [5] was determined as 2.18.

On to `O=C(c1ccc(OCCCc2cnc[nH]2)cc1)C1CC1` [CIPROXIFAN], for which the IC50 at Acetylcholinesterase [6] came to 86100 nM; on Cholinesterase [7], 77300 nM.

As to `CN(C)C(=O)Oc1ccccc1-c1nc2ccccc2s1`, the IC50 at Acetylcholinesterase [8] is 20900 nM.

As usually defined, the inhibition in vivo is the percentage by which the read-out fell short of the control. Low readings indicate a weak effect, high ones a strong effect. In the case of `C#CCN[C@@H]1CCc2ccc(OC(=O)N(C)CC)cc21` [LADOSTIGIL], the inhibition in vivo at 26 mg/kg amounted to 66% in the experiment on Rattus norvegicus [9] and 71% with Rattus norvegicus [10].

For `C#CCN(C)C(C)Cc1cccc(OC(=O)N(C)CCCCCC)c1` (racemic), the IC50 at Cholinesterase [11] is 720 nM.

For `C#CCN(C)C(C)Cc1cccc(OC(=O)N(C)CCCCCC)c1` (single isomer, unassigned; (-)), 3400 nM corresponded to half-maximal inhibition on Acetylcholinesterase [1] (IC50).

With `COc1ccc2[nH]cc(CCNC(=O)CN(CCCC3CCN(Cc4ccccc4)CC3)C(=O)/C=C/c3ccc(O)c(OC)c3)c2c1`, the IC50 against Cholinesterase [12] came to 17.5 nM; against Acetylcholinesterase [13], 26.2 nM.

The molecule `C/C=C1\C2C=C(C)CC1c1c(nc3ccccc3c1N)C2` (racemic) gave a half-inhibitory concentration (IC50) at Acetylcholinesterase [14] of 320 nM.

As a reminder, the Ki is a measure of affinity in units of concentration, obtained from inhibition or displacement. As to `C#CCN(C)Cc1cc2cc(OCCCC3CCN(Cc4ccccc4)CC3)ccc2n1C`, the IC50 in experiment [15] turned out to be 0.27 nM; on Acetylcholinesterase [6] it was 810 nM; on Cholinesterase [7], 1820 nM. The same molecule yielded a Ki on Histamine H3 receptor of 84.2 nM.

With `O=C(NCCCCCCNc1c2c(nc3ccccc13)CCCC2)c1cc(O)c2c(c1)C(=O)c1cccc(O)c1C2=O`, the IC50 stood at 27.3 nM against Acetylcholinesterase [16] and 200 nM on Cholinesterase [18]. The molecule further displayed an inhibition against Acetylcholinesterase [17] of 70.2%.
